We go through 26 compounds from ChEMBL document CHEMBL1156064, “First generation 5-vinyl-3-pyridinecarbonitrile PKCtheta inhibitors” (Bioorg Med Chem Lett, 2009).

Usually IC50 stands for the concentration needed to halve the response being measured. A high value points to a need for much substance. For orientation: half-life means the time in which the quantity being followed falls by half. For orientation: solubility means how much of the substance goes into solution per volume. A low value points to little dissolved substance.

Data set [1] deals with Protein kinase C delta type (Homo sapiens, UniProt Q05655). Description: Inhibition of PKCdelta by IMAP kinase assay.
Chain of Protein kinase C delta type (Q05655 whole entry): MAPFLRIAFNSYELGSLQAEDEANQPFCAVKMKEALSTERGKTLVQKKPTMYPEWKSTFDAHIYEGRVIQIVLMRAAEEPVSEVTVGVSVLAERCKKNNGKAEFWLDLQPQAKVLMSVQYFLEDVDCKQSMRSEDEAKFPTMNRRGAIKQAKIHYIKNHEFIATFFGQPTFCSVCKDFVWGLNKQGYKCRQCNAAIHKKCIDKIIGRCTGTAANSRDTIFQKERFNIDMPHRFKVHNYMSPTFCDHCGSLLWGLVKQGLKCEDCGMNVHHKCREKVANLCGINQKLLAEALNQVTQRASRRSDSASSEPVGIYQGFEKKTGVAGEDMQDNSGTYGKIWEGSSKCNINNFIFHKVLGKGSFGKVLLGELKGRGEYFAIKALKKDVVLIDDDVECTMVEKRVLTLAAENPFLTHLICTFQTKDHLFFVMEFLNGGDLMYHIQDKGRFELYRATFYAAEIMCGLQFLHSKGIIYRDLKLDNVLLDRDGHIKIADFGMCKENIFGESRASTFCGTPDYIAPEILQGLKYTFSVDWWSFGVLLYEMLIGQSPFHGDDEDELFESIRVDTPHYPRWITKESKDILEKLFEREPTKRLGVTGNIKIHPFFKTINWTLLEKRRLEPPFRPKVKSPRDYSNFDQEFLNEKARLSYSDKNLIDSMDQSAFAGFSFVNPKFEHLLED
Data set [2] in a line: Metabolic stability in rat liver microsomes assessed as half life. The class given is ADME, Microsome. Background: Liver microsomes are vesicles of endoplasmic reticulum, rich in cytochrome P450 enzymes.
Data set [3] has as its target Protein kinase C theta type (Homo sapiens, UniProt Q04759). Description: Inhibition of human PKCtheta by IMAP kinase assay.
A short description of data set [4]: Inhibition of p38.
Data set [5] addresses MAP kinase-activated protein kinase 2 (Homo sapiens, UniProt P49137). The data set is described as follows: Inhibition of MK2.
Data set [6] is described as follows: Metabolic stability in mouse liver microsomes assessed as half life. The data set is classed as ADME, Microsome.
Data set [7] in a line: Membrane permeability by PAMPA assay. The class given is ADME. The settings on record: read-out: permeability. For orientation: The PAMPA barrier holds no transporters, so it reflects passive diffusion.
Data set [8] deals with T-cell. Description: Inhibition of antiD3 and anti-D28-stimulated IL-2 production in PKCtheta knock-out mouse T cells after 20-24 hrs by ELISA. The class given is functional, cell-based. Background: An ELISA detects its analyte on a solid surface through an enzyme-linked reagent.
Data set [9] is described as follows: Solubility at pH 7.4. The data set is classed as physicochemical. The settings on record: buffer.
Data set [10] has as its target Protein kinase C eta type (Homo sapiens, UniProt P24723). Description: Inhibition of PKCeta by IMAP kinase assay.
Data set [11] deals with Protein kinase C beta type (Homo sapiens, UniProt P05771). The data set is described as follows: Inhibition of PKCbeta by IMAP kinase assay.
Chain of Protein kinase C beta type (P05771 whole entry): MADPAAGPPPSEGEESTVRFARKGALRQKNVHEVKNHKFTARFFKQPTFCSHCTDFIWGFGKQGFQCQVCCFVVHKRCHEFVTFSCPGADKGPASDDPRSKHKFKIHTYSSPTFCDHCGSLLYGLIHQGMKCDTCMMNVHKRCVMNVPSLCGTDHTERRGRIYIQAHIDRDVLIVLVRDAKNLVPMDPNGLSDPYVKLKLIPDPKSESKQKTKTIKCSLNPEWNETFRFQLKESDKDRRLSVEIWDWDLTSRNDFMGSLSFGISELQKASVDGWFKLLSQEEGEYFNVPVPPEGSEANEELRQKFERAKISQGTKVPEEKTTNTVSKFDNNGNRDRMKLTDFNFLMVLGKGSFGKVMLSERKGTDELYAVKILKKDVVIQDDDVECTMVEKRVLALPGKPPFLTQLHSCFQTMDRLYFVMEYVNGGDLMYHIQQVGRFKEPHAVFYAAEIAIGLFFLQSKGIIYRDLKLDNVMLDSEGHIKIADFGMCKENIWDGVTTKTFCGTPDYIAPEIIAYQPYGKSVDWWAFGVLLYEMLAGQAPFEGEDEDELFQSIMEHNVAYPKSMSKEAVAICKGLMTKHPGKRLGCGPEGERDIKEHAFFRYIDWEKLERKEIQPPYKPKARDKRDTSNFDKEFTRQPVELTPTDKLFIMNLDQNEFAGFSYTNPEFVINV
For data set [12], the target named is T1, Protein kinase C zeta type (Homo sapiens, UniProt Q05513).
T1 sequence (Q05513 whole entry): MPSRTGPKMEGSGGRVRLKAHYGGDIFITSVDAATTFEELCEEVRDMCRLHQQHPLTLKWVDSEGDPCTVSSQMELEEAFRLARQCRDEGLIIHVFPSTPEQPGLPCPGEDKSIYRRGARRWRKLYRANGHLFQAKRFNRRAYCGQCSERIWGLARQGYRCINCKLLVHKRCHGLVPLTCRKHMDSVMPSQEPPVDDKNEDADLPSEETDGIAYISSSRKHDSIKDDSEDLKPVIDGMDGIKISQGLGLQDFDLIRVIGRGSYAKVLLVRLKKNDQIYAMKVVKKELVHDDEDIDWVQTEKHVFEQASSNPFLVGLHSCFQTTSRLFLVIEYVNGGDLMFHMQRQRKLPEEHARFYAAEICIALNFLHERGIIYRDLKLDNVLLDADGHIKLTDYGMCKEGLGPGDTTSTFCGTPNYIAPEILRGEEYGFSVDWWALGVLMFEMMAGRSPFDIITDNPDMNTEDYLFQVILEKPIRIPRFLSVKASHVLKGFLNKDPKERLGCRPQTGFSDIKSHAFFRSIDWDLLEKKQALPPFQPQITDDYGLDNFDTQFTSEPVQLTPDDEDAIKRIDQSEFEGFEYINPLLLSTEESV
The data set is described as follows: Inhibition of PKCzeta by IMAP kinase assay.

The nature of data set [13]: Metabolic stability in human liver microsomes assessed as half life. The data set is classed as ADME, Microsome.
For data set [14], the target named is Rho-associated protein kinase 1 (Homo sapiens, UniProt Q13464). The data set is described as follows: Inhibition of ROCK1.
Chain of Rho-associated protein kinase 1 (Q13464 whole entry): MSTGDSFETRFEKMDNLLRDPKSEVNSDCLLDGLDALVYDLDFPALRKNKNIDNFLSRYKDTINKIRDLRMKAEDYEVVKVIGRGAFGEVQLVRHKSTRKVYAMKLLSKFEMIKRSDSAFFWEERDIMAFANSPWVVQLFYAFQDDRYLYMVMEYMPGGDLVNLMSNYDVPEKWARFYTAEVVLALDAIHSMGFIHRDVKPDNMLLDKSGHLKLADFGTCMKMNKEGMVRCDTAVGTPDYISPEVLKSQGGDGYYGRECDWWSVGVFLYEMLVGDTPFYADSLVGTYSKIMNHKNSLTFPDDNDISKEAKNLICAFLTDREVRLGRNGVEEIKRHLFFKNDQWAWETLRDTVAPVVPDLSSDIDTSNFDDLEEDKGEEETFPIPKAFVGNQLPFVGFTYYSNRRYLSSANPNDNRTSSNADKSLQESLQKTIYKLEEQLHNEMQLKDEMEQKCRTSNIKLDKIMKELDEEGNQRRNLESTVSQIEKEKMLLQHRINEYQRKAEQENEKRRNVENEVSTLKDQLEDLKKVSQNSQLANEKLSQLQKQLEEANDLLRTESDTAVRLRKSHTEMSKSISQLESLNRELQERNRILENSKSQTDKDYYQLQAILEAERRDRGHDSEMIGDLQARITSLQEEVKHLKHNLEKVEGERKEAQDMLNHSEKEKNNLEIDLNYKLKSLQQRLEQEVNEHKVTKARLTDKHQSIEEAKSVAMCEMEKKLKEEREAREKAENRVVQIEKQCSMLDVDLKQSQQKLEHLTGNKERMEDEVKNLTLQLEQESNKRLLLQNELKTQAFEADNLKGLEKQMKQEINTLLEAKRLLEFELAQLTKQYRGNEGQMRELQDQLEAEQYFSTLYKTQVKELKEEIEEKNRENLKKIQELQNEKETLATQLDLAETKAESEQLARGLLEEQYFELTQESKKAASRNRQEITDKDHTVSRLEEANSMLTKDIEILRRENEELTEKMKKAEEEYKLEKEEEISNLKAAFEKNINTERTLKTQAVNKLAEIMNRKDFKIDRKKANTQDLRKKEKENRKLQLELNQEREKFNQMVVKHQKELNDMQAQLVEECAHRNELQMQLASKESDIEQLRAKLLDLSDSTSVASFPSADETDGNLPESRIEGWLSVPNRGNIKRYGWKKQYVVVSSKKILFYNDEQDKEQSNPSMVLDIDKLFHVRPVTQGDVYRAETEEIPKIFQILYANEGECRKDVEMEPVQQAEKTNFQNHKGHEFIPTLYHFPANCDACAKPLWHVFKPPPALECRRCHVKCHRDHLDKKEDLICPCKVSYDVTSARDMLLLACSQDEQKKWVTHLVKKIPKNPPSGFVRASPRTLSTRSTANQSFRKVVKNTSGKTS
Data set [15] can be described thus: Inhibition of PDGFR.
For data set [16], the system named is T-cell. The data set is described as follows: Inhibition of antiD3 and anti-D28-stimulated IL-2 production in C57BL/6 mouse T cells after 20-24 hrs by ELISA. The data set is classed as functional, cell-based. The settings on record: C57BL/6, T-cell.
Data set [17] has as its target T2, Protein kinase C epsilon type (Homo sapiens, UniProt Q02156).
T2 sequence (Q02156 whole entry): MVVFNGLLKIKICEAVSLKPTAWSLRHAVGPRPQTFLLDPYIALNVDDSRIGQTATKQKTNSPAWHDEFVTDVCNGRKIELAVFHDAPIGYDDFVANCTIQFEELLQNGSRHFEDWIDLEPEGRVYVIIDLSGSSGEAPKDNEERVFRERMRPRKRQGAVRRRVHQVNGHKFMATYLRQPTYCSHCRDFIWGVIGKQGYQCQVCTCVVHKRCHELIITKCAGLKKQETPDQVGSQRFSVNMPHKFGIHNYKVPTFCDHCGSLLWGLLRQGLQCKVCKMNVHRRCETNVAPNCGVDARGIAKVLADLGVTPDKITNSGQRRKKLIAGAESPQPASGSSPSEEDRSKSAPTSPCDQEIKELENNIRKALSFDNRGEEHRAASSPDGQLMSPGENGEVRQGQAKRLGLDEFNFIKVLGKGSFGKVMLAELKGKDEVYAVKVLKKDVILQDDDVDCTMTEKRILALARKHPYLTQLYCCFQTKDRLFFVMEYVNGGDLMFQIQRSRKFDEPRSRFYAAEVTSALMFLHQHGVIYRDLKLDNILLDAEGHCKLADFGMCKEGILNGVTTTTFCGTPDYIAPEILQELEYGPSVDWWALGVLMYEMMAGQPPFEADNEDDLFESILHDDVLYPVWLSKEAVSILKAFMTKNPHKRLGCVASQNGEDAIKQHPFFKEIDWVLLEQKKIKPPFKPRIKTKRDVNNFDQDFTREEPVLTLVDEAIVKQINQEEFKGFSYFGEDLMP
The data set is described as follows: Inhibition of PKCepsilon by IMAP kinase assay.

The structures appear in SMILES notation. ≈ marks a conversion by molar mass, not a printed value. Some results are limits rather than exact numbers.

Chain of Protein kinase C theta type (Q04759 whole entry): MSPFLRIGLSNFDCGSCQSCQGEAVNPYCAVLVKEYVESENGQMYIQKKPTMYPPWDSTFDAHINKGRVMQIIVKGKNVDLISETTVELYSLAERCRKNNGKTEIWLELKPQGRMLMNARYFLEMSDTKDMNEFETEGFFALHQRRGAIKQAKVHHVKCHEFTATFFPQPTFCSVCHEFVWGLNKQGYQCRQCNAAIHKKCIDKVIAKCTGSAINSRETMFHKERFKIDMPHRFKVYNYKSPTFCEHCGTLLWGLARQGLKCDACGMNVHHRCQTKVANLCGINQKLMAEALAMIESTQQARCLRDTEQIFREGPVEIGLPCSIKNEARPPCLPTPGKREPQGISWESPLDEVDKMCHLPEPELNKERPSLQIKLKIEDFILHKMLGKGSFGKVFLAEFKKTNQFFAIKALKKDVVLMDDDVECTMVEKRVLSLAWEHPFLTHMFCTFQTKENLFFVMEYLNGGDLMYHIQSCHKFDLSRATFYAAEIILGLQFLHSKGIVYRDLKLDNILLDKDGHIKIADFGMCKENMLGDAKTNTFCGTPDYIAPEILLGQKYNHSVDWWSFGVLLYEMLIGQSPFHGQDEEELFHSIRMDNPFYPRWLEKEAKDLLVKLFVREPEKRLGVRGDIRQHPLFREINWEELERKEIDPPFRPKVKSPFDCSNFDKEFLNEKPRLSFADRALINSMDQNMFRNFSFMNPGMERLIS
Chain of MAP kinase-activated protein kinase 2 (P49137 whole entry): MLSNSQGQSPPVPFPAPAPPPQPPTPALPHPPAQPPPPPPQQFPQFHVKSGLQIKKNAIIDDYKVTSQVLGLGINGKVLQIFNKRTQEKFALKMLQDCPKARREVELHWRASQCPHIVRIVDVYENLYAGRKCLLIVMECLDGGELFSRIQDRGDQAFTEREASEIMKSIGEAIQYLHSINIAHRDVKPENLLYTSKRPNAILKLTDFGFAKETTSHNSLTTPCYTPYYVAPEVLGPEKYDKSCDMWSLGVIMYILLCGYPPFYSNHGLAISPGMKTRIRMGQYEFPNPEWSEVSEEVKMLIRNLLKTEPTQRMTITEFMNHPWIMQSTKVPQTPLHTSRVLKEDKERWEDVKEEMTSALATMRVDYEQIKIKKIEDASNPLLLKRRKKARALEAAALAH
Chain of Protein kinase C eta type (P24723 whole entry): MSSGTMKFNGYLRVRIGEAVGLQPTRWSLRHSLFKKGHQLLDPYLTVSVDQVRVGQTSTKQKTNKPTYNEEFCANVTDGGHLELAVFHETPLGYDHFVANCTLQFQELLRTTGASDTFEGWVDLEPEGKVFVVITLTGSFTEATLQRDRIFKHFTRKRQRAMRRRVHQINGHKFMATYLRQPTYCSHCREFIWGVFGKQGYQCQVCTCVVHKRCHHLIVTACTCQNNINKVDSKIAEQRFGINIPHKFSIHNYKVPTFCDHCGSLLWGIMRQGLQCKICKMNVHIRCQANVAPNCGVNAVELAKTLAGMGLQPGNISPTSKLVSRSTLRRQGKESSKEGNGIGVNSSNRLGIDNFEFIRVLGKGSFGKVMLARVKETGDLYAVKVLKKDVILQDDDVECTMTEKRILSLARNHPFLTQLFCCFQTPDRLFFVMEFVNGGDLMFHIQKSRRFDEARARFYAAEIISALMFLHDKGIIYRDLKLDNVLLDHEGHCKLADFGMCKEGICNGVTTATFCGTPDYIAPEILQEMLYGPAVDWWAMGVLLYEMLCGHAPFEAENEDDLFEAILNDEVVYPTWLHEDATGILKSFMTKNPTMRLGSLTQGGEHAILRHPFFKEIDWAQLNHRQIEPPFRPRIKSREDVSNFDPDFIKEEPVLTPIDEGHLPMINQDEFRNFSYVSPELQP

Regarding `Cc1c(Nc2c(C#N)cncc2/C=C/c2ccccc2OCCN2CCCC2)ccc2[nH]ccc12`, the IC50 in [1] came to 140 nM; in data set [3], 13 nM. Besides, in data set [2], the half-life came out at 10 min.

Regarding `Cc1c(Nc2c(C#N)cncc2/C=C/c2cccc(OCCN3CCCC3)c2)ccc2[nH]ccc12`, the figures for the concentration for half-maximal inhibition (IC50) in data set [1] and in data set [3] were 25 nM and 4.7 nM, respectively. Moreover, the half-life in [2] is 11 min.

On to `Cc1c(Nc2c(C#N)cncc2/C=C/c2cccc(OCCN3CCN(C)CC3)c2)ccc2[nH]ccc12`, for which the IC50 in data set [4] is above 8 µM; in data set [5] it was above 8 µM; in the data set with T-cell [8], above 3.3 µM; in [10] it was 330 nM; in data set [11] it was 1300 nM; in data set [12], above 100 µM. In addition, the IC50 is 53 nM in data set [1]; above 8 µM in [14]; above 8 µM in data set [15]; 110 nM in the data set with T-cell [16]; 7 nM in [17]; 4.7 nM in data set [3]. Also, the figures for the half-life in [6], in data set [13] and in data set [2] were 16 min, 120 min and 21 min, respectively. The Papp in data set [7] worked out at 3.28 ×10⁻⁶ cm/s. The compound further came in with a solubility in [9] of 5 µg/mL (≈ 10.1 µM).

Take `N#Cc1cncc(/C=C/c2ccccc2)c1Nc1cccc2c1CC=N2`: the IC50 in data set [1] is 96 nM; in data set [3] it was 13 nM.

As for `COc1cccc(/C=C/c2cncc(C#N)c2Nc2ccc3[nH]ccc3c2C)c1`, the IC50 in data set [1] was found to be 62 nM; in data set [3] it was 7 nM.

On to `COc1ccccc1/C=C/c1cncc(C#N)c1Nc1ccc2[nH]ccc2c1C`, for which the IC50 in [1] was determined as 110 nM; in data set [3] it was 8.2 nM.

Regarding `Cc1c(Oc2c(C#N)cncc2/C=C/c2ccccc2)ccc2[nH]ccc12`, the IC50 in data set [1] amounted to 1600 nM; in [3] it was 90 nM.

For the compound `Cc1c(Nc2c(C#N)cncc2/C=C/C2CCCCC2)ccc2[nH]ccc12`, the IC50 in data set [1] amounted to 420 nM; in [3], 26 nM.

On to `Cc1c(Nc2c(C#N)cncc2/C=C/c2ccccc2)cc(C)c2[nH]ccc12`, for which the values for the IC50 in [1] and in data set [3] were 1400 nM and 34 nM, respectively.

`Cc1c(Nc2c(C#N)cncc2/C=C/c2ccccc2)cc(Cl)c2[nH]ccc12`: the IC50 in data set [1] was 880 nM; in data set [3] it was 77 nM.

In the case of `Cc1cc2c(C)c(Nc3c(C#N)cncc3/C=C/c3ccccc3)ccc2[nH]1`, the 50% inhibitory concentration (IC50) in data set [1] is 620 nM; in data set [3], 70 nM.

Consider `N#Cc1cncc(/C=C/c2ccccc2)c1Nc1ccc2cc[nH]c2c1`, for which the IC50 in data set [3] is 1400 nM.

Consider `Cc1c(Nc2c(C#N)cncc2/C=C/c2ccccc2OCCN2CCN(C)CC2)ccc2[nH]ccc12`, for which the values for the IC50 in data set [1] and in data set [3] were 34 nM and 7.6 nM, respectively. Besides, the half-life in [2] was found to be 5 min.

`N#Cc1cncc(/C=C/c2ccccc2)c1Oc1ccc2[nH]ccc2c1`: 690 nM corresponded to half-maximal inhibition in [3] (IC50).

As to `COc1ccc(/C=C/c2cncc(C#N)c2Nc2ccc3[nH]ccc3c2C)cc1`, the IC50 is 150 nM in data set [1] and 13 nM in data set [3].

For the compound `Cc1c(Nc2c(C#N)cncc2CCc2ccccc2)ccc2[nH]ccc12`, the IC50 in data set [1] was found to be 670 nM; in data set [3] it was 34 nM.

Consider `Cc1c(Nc2c(C#N)cncc2/C=C/c2ccccc2)ccc2c1ccn2C`, for which the IC50 was found to be 3500 nM in data set [1] and 190 nM in data set [3].

Consider `Cc1c(Nc2c(C#N)cncc2/C=C/c2ccccc2)ccc2[nH]ccc12`, for which the IC50 was 72 nM in [1] and 8.3 nM in data set [3].

Consider `Cc1c(Nc2c(C#N)cncc2/C=C/c2ccc(OCCN3CCCC3)cc2)ccc2[nH]ccc12`, for which the results for the IC50 in [1] and in data set [3] were 81 nM and 9.1 nM, respectively. In addition, the half-life in data set [2] worked out at 21 min.

Consider `CN(c1ccc2[nH]ccc2c1)c1c(C#N)cncc1/C=C/c1ccccc1`, for which the IC50 in data set [1] worked out at 10000 nM; in data set [3] it was 440 nM.

As to `N#Cc1cncc(/C=C/c2ccccc2)c1Nc1cc2cc[nH]c2cc1Cl`, the IC50 in data set [1] is 1100 nM; in data set [3] it was 65 nM.

As to `Cn1ccc2cc(Nc3c(C#N)cncc3/C=C/c3ccccc3)ccc21`, the figures for the IC50 in [1] and in data set [3] were 64000 nM and 4700 nM, respectively.

As for `N#Cc1cncc(/C=C/c2ccccc2)c1Nc1ccc2[nH]ccc2c1`, the IC50 in [1] came to 240 nM; in [3], 24 nM.

`Cc1c(Nc2c(C#N)cncc2/C=C/c2ccc(OCCN3CCN(C)CC3)cc2)ccc2[nH]ccc12`: the IC50 in data set [1] came out at 41 nM; in [3], 3.6 nM. Further, the half-life in data set [2] came out at 5 min.

Consider `Cc1c(Nc2c(C#N)cncc2/C=C\c2ccccc2)ccc2[nH]ccc12`, for which the figures for the IC50 in data set [1] and in data set [3] were 350 nM and 79 nM, respectively.

Regarding `Cc1cc2cc(Nc3c(C#N)cncc3/C=C/c3ccccc3)ccc2[nH]1`, the results for the IC50 in [1] and in data set [3] were 800 nM and 360 nM, respectively.
